Numbered stars: 1 amine (or outer) side, 2 acyl side, 3 side chain; on linkers, the order of the positions; unused ones are H or OH. Bridge positions count the residues as written; N and C are the ends. Square brackets hold non-standard residues; d marks the D form. Peptide text beside a SMILES is read from it. * marks the point of attachment. Trp(7-aza,1-CH2COOH) = N[C@@H](Cc1cn(CC(=O)O)c2ncccc12)C(=O)O; Trp(βS-Me,7-OMe) = COc1cccc2c([C@H](C)[C@H](N)C(=O)O)c[nH]c12; Trp(1-CH2COOH) = N[C@@H](Cc1cn(CC(=O)O)c2ccccc12)C(=O)O; Phe(4-SO2NH2) = N[C@@H](Cc1ccc(S(N)(=O)=O)cc1)C(=O)O; Ala(indazol-1-yl) = N[C@@H](Cn1ncc2ccccc21)C(=O)O; Trp(7-CN) = N#Cc1cccc2c(C[C@H](N)C(=O)O)c[nH]c12; Trp(7-Cl) = N[C@@H](Cc1c[nH]c2c(Cl)cccc12)C(=O)O; X20 = O=C1NCc2ccc(C[C@H](N[*:1])C(=O)[*:2])cc21; Phe(4-CONH2) = NC(=O)c1ccc(C[C@H](N)C(=O)O)cc1; Phe(4-COOH) = N[C@@H](Cc1ccc(C(=O)O)cc1)C(=O)O; 4Pal(3S-Me) = C[C@@H](c1ccncc1)[C@H](N)C(=O)O; Trp(7-aza) = N[C@@H](Cc1c[nH]c2ncccc12)C(=O)O; X48 = O=C([C@H](CC12CC(O)(C1)C2)N[*:1])[*:2]; X52 = C[C@@H](C(=O)[*:2])N(CCC(N)=O)[*:1]; Pip(5R-OH) = O=C(O)[C@@H]1CC[C@@H](O)CN1; X1 = O=C([C@@H]1CC[C@H](N[*:1])C1)[*:2]; AEF = NCCOc1ccc(C[C@H](N)C(=O)O)cc1; Pip(4-aza) = O=C(O)[C@@H]1CNCCN1; 4Pal = N[C@@H](Cc1ccncc1)C(=O)O; Ethyl(2-NMe3+) = C[N+](C)(C)CC*; NMeE = CN[C@@H](CCC(=O)O)C(=O)O; dHyp = O=C(O)[C@H]1C[C@H](O)CN1; Ahp(2) = CCCCC[C@H](N)C(=O)O; hSer = N[C@@H](CCO)C(=O)O; αMeS = C[C@](N)(CO)C(=O)O; Carboxymethyl = O=C(O)C*; Nle = CCCC[C@H](N)C(=O)O; CF3 = FC(F)(F)*; Sar = CNCC(=O)O

For assay [1], the target named is T1, human soluble TNFR1 (sTNFR1) (Homo sapiens, UniProt P19438).
T1 construct: made in house; host or cells: Sf21 (baculovirus)
T1 sequence (P19438 with tags, fused parts or gaps): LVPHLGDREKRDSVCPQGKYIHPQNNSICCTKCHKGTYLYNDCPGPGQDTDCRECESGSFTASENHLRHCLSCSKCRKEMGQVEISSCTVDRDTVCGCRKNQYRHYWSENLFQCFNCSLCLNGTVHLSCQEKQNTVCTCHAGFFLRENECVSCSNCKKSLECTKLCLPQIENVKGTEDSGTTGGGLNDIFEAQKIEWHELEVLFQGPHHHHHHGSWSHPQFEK
The assay can be described thus: Human sTNFR1-peptide displacement assay (LanthaScreen Eu TR-FRET binding assay). The gist of the method:
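Readout is the 665/615 nm TR-FRET ratio (Eu anti-His donor, streptavidin-Alexa647 acceptor), normalized to DMSO and saturating displacer, fit by Morrison-based five-parameter logistic for Kd^app. His-tagged sTNFR1 (1-211) prebound to 100 nM biotinylated peptide SEQ ID NO.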
For orientation: TR-FRET usually uses a lanthanide donor and a delayed reading to cut background.

In assay [2] the target is T2, TNFα-induced NF-κB signal transduction pathway (TNFR1 signaling) in THP-1 cells (Homo sapiens, UniProt P19438).
T2 sequence (P19438 30-455): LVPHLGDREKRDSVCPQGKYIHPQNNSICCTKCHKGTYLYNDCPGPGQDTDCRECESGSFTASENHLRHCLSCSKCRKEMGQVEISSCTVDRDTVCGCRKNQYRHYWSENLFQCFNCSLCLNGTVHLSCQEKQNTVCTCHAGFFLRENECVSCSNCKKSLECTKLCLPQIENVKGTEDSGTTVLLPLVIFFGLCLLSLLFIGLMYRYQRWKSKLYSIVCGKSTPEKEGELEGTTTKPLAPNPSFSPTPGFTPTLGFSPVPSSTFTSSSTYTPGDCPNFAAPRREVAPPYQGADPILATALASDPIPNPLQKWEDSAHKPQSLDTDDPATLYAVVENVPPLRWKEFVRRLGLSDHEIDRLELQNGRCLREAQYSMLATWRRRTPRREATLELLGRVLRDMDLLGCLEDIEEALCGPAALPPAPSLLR
Put plainly: THP-1 Lucia NF-κB reporter cell assay, inhibition of TNFα-induced NF-κB signaling. It is filed as cell-based. The settings on record: THP-1 NF-κB Lucia reporter cells, 10 ng/mL TNFα, 16-18 h, secreted luciferase; read-out: THP-1 IC50. The gist of the method: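 Read-out: secreted Lucia luciferase luminescence (QUANTI-Luc) from supernatant after 16-18 h, 37 °C, 10 ng/mL rhTNFα. Peptide pretreatment 1 h at 37 °C; 20,000 cells/well, selection antibiotics omitted. IC50 via 4-parameter logistic model against min/max controls.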

As usually defined, the Kd is the free concentration of one partner at which half of the binding sites on the other are occupied at equilibrium, for simple one-to-one binding. Read a low Kd as tighter binding. The term IC50 denotes the concentration at which inhibition is half-maximal. With `CCCC[C@@H]1NC(=O)[C@@H]2CC[C@@H](C2)NC(=O)[C@H]([C@@H](C)c2c[nH]c3c(OC)cccc23)NC(=O)CN(C)C(=O)[C@H](Cc2ccc(OCC(=O)O)cc2)NC(=O)[C@H](Cc2ccc(S(N)(=O)=O)cc2)NC(=O)[C@](C)(CO)NC(=O)[C@H](Cc2c[nH]c3c(C#N)cccc23)NC(=O)[C@H](Cc2ccc(OCC(=O)O)cc2)NC(=O)[C@H](CC(N)=O)NC(=O)[C@H]2C[C@H](O)CN2C(=O)[C@H](Cc2c[nH]c3ccccc23)NC(=O)[C@@H]2CC[C@@H](O)CN2C(=O)[C@H](Cc2ccncc2)NC1=O` [SEQ ID NO. 135] (cyclo([4Pal][Pip(5R-OH)]W[dHyp]NY(Carboxymethyl)[Trp(7-CN)][αMeS][Phe(4-SO2NH2)]Y(Carboxymethyl)[Sar][Trp(βS-Me,7-OMe)][X1][Nle])), the Kd in assay [1] was determined as 0.07 nM. Moreover, in assay [2], the IC50 worked out at 0.4 nM.

For `CCCC[C@@H]1NC(=O)[C@@H]2CC[C@@H](C2)NC(=O)[C@H]([C@@H](C)c2c[nH]c3c(OC)cccc23)NC(=O)CN(C)C(=O)[C@H](Cc2ccc(C(N)=O)cc2)NC(=O)[C@H](Cc2ccc(S(N)(=O)=O)cc2)NC(=O)[C@](C)(CO)NC(=O)[C@H](Cc2c[nH]c3c(C#N)cccc23)NC(=O)[C@H](Cc2ccc(C(=O)O)cc2)NC(=O)[C@H](CC(N)=O)NC(=O)[C@H]2C[C@H](OCC[N+](C)(C)C)CN2C(=O)[C@H](Cc2cn(CC(=O)O)c3ccccc23)NC(=O)[C@@H]2CC[C@@H](O)CN2C(=O)[C@H](Cc2ccncc2)NC1=O` [SEQ ID NO. 136] (cyclo([4Pal][Pip(5R-OH)][Trp(1-CH2COOH)][dHyp](Ethyl(2-NMe3+))N[Phe(4-COOH)][Trp(7-CN)][αMeS][Phe(4-SO2NH2)][Phe(4-CONH2)][Sar][Trp(βS-Me,7-OMe)][X1][Nle])), the Kd in assay [1] worked out at 0.07 nM. For the same compound, the half-maximal inhibitory concentration (IC50) in assay [2] stood at 0.4 nM.

As to `CCCC[C@@H]1NC(=O)[C@@H]2CC[C@@H](C2)NC(=O)[C@H]([C@@H](C)c2c[nH]c3c(OC)cccc23)NC(=O)CN(C)C(=O)[C@H](Cc2ccc(O)cc2)NC(=O)[C@H](Cc2ccc(C(N)=O)cc2)NC(=O)[C@](C)(CO)NC(=O)[C@H](Cc2c[nH]c3c(Cl)cccc23)NC(=O)[C@H](Cc2ccc(OCCN)cc2)NC(=O)[C@H](CC(N)=O)NC(=O)[C@H](CCC(=O)O)N(C)C(=O)[C@H](Cc2c[nH]c3ccccc23)NC(=O)[C@@H]2CC[C@@H](O)CN2C(=O)[C@H](Cc2ccncc2)NC1=O` [SEQ ID NO. 145] (cyclo([4Pal][Pip(5R-OH)]W[NMeE]N[AEF][Trp(7-Cl)][αMeS][Phe(4-CONH2)]Y[Sar][Trp(βS-Me,7-OMe)][X1][Nle])), the Kd in assay [1] amounted to 0.18 nM. Besides, the IC50 in assay [2] stood at 0.8 nM.

Regarding `CCCC[C@@H]1NC(=O)[C@@H]2CC[C@@H](C2)NC(=O)[C@H]([C@@H](C)c2c[nH]c3c(OC)cccc23)NC(=O)CN(C)C(=O)[C@H](Cc2ccc(C(N)=O)cc2)NC(=O)[C@H](Cc2ccc(C(N)=O)cc2)NC(=O)[C@](C)(CO)NC(=O)[C@H](Cc2c[nH]c3c(C#N)cccc23)NC(=O)[C@H](Cc2ccc(C(=O)O)cc2)NC(=O)[C@H](CC(N)=O)NC(=O)[C@H](C)N(CCC(N)=O)C(=O)[C@H](Cc2c[nH]c3ncccc23)NC(=O)[C@@H]2CC[C@@H](O)CN2C(=O)[C@H](Cc2ccncc2)NC1=O` [SEQ ID NO. 147] (cyclo([4Pal][Pip(5R-OH)][Trp(7-aza)][X52]N[Phe(4-COOH)][Trp(7-CN)][αMeS][Phe(4-CONH2)][Phe(4-CONH2)][Sar][Trp(βS-Me,7-OMe)][X1][Nle])), the equilibrium dissociation constant (Kd) in assay [1] was found to be 0.21 nM. Further, in assay [2], the IC50 turned out to be 1.4 nM.

`CCCC[C@@H]1NC(=O)CSC[C@@H](C(N)=O)NC(=O)[C@H]([C@@H](C)c2c[nH]c3c(OC)cccc23)NC(=O)CN(C)C(=O)[C@H](Cc2ccc(O)cc2)NC(=O)[C@H](Cc2ccc(C(=O)O)cc2)NC(=O)[C@](C)(CO)NC(=O)[C@H](Cc2c[nH]c3c(Cl)cccc23)NC(=O)[C@H](Cc2ccncc2)NC(=O)[C@H](CC(N)=O)NC(=O)[C@H](CCC(=O)O)N(C)C(=O)[C@H](Cn2ncc3ccccc32)NC(=O)[C@H]([C@@H](C)O)NC(=O)[C@H](CC23CC(O)(C2)C3)NC1=O` [SEQ ID NO. 152] ({CH2CO}-[Nle][X48]T[Ala(indazol-1-yl)][NMeE]N[4Pal][Trp(7-Cl)][αMeS][Phe(4-COOH)]Y[Sar][Trp(βS-Me,7-OMe)]C-NH2; thioether N-14): the Kd in assay [1] was 1.19 nM. In assay [2], the concentration for half-maximal inhibition (IC50) was determined as 5.3 nM.

`CCCCC[C@@H]1NC(=O)[C@@H]2CC[C@@H](C2)NC(=O)[C@H]([C@@H](C)c2c[nH]c3c(OC)cccc23)NC(=O)CN(C)C(=O)[C@H](Cc2ccc(C(N)=O)cc2)NC(=O)[C@H](Cc2ccc(C(N)=O)cc2)NC(=O)[C@](C)(CO)NC(=O)[C@H](Cc2c[nH]c3c(C#N)cccc23)NC(=O)[C@H](Cc2ccc(C(=O)O)cc2)NC(=O)[C@H](CC(N)=O)NC(=O)[C@H]2C[C@H](O)CN2C(=O)[C@H](Cc2c[nH]c3ccccc23)NC(=O)[C@H](CCOC)NC(=O)[C@H]([C@@H](C)c2ccncc2)NC1=O` [SEQ ID NO. 154] (cyclo([Ahp(2)][4Pal(3S-Me)][hSer](Me)W[dHyp]N[Phe(4-COOH)][Trp(7-CN)][αMeS][Phe(4-CONH2)][Phe(4-CONH2)][Sar][Trp(βS-Me,7-OMe)][X1])) yielded an equilibrium dissociation constant (Kd) in assay [1] of 0.17 nM. Moreover, the IC50 in assay [2] is 1.2 nM.

Consider `CCCC[C@@H]1NC(=O)[C@@H]2CC[C@@H](C2)NC(=O)[C@H]([C@@H](C)c2c[nH]c3c(OC)cccc23)NC(=O)CN(C)C(=O)[C@H](Cc2ccc(C(N)=O)cc2)NC(=O)[C@H](Cc2ccc(C(N)=O)cc2)NC(=O)[C@](C)(CO)NC(=O)[C@H](Cc2c[nH]c3c(C#N)cccc23)NC(=O)[C@H](Cc2ccc3c(c2)C(=O)NC3)NC(=O)[C@H](CC(N)=O)NC(=O)[C@H]2C[C@H](OCC(=O)O)CN2C(=O)[C@H](Cc2cn(CC(=O)O)c3ncccc23)NC(=O)[C@@H]2CC[C@@H](O)CN2C(=O)[C@H](Cc2ccncc2)NC1=O` [SEQ ID NO. 156] (cyclo([4Pal][Pip(5R-OH)][Trp(7-aza,1-CH2COOH)][dHyp](Carboxymethyl)N[X20][Trp(7-CN)][αMeS][Phe(4-CONH2)][Phe(4-CONH2)][Sar][Trp(βS-Me,7-OMe)][X1][Nle])), for which the Kd in assay [1] stood at 0.12 nM. In assay [2], the IC50 is 0.8 nM.

Turning to `CCCC[C@@H]1NC(=O)CSC[C@@H](C(N)=O)NC(=O)[C@H]([C@@H](C)c2c[nH]c3c(OC)cccc23)NC(=O)CN(C)C(=O)[C@H](Cc2ccc(OC(F)(F)F)cc2)NC(=O)[C@H](Cc2ccc(C(=O)O)cc2)NC(=O)[C@](C)(CO)NC(=O)[C@H](Cc2c[nH]c3c(Cl)cccc23)NC(=O)[C@H](Cc2ccncc2)NC(=O)[C@H](CC(N)=O)NC(=O)[C@H](CCC(=O)O)N(C)C(=O)[C@H](Cc2c[nH]c3ncccc23)NC(=O)[C@@H]2CNCCN2C(=O)[C@H](Cc2ccncc2)NC1=O` [SEQ ID NO. 158] ({CH2CO}-[Nle][4Pal][Pip(4-aza)][Trp(7-aza)][NMeE]N[4Pal][Trp(7-Cl)][αMeS][Phe(4-COOH)]Y(CF3)[Sar][Trp(βS-Me,7-OMe)]C-NH2; thioether N-14), the values for the IC50 in assay [1] and in assay [2] were 1.79 nM and 5.3 nM, respectively.
